Measurements reported in the OligoGym collection.
Values joined by “and” are separate entries in the source; they are usually repeats but may differ in a detail not shown here. Equal entries are not always repeated. After the bases stand the sugars from the 5' end (letter, count) and the backbone: PS all phosphorothioate, else s phosphorothioate and o phosphodiester by linkage. Methylation of C is not given here. l = locked nucleic acid (LNA); d = 2'-deoxy (DNA)

What was measured:
HTRA1 = conditions: ASO, U251, 5 µM
MYH7 = conditions: ASO, CC-2580, 5 µM
ANGPTL2 = conditions: ASO

## ATCTACGCATTGTATC (sugars l4 d8 l4, PS)
HTRA1
  target mRNA inhibition: 87%

## CAGCTTGGCGATGATCT (sugars lddlldldlddddddll, PS)
MYH7
  target mRNA inhibition: 9% and -15%

## CTATCTACGCATTGTATC (sugars l2 d12 l4, PS)
HTRA1
  target mRNA inhibition: 77%

## TCAGCTTGGCGATGATCT (sugars ldldlddddddlldldll, PS)
MYH7
  target mRNA inhibition: -30% and -41%

## TATCGACTGCATTAGT (sugars l3 d11 l2, PS)
HTRA1
  target mRNA inhibition: 98%

## CAATGTGTAAGAAGTACTTT (sugars l4 d12 l4, PS)
HTRA1
  target mRNA inhibition: 79%

## TGTAAGAAGTACTTTAATAG (sugars l4 d12 l4, PS)
HTRA1
  target mRNA inhibition: 79%

## CAGCTTGGCGATGATCT (sugars lddlddddddddlddll, PS)
MYH7
  target mRNA inhibition: 35% and 18%

## TCTATCTACGCATTGTATC (sugars l3 d14 l2, PS)
HTRA1
  target mRNA inhibition: 69%

## CAGCTTGGCGATGATCT (sugars lldddldddddldldll, PS)
MYH7
  target mRNA inhibition: 25% and 16%

## CTATCTACGCATTGTA (sugars l4 d8 l4, PS)
HTRA1
  target mRNA inhibition: 95%

## TGTATCGACTGCATTA (sugars l4 d8 l4, PS)
HTRA1
  target mRNA inhibition: 95%

## TCAGCTTGGCGATGATCT (sugars l2 d9 l1 d2 l4, PS)
MYH7
  target mRNA inhibition: 31% and 40%

## TCAGCTTGGCGATGATCT (sugars l2 d14 l2, PS)
MYH7
  target mRNA inhibition: 56% and 33%

## TATCGACTGCATTAGTT (sugars l4 d10 l3, PS)
HTRA1
  target mRNA inhibition: 73%

## TCAGCTTGGCGATGATCT (sugars llddldddddddldldll, PS)
MYH7
  target mRNA inhibition: 14% and 0%

## CTTGGCAATGATCTCATCC (sugars lldldddddddldldldll, PS)
MYH7
  target mRNA inhibition: 39% and 26%

## TCAGCTTGGCGATGATCT (sugars llddldddddddldddll, PS)
MYH7
  target mRNA inhibition: 35% and 17%

## TCAGCTTGGCGATGATCT (sugars lldldddddddddldlll, PS)
MYH7
  target mRNA inhibition: 59% and 40%

## TTCTTCTATCTACGCATTG (sugars l3 d14 l2, PS)
HTRA1
  target mRNA inhibition: 82%

## CAGGCCAACACTAACTCG (sugars l1 d14 l3, PS)
ANGPTL2; 5 µM
  target mRNA inhibition: 73.4%
ANGPTL2; 25 µM
  target mRNA inhibition: 84.2%

## TATCTACGCATTGTATCG (sugars l4 d12 l2, PS)
HTRA1
  target mRNA inhibition: 71%

## CAGCTTGGCGATGATCT (sugars lddldlddlldddddll, PS)
MYH7
  target mRNA inhibition: 13% and 3%

## CAGCTTGGCGATGATCT (sugars ldlddlddddddlddll, PS)
MYH7
  target mRNA inhibition: 47% and 25%

## CTCAGTTAAAGGAGGAGACA (sugars l3 d15 l2, PS)
HTRA1
  target mRNA inhibition: 26%

## CAGCTTGGCGATGATCT (sugars llddddddddldlddll, PS)
MYH7
  target mRNA inhibition: 26% and 5%

## GATGATGCGGTTGTAG (sugars l4 d10 l2, PS)
ANGPTL2; 5 µM
  target mRNA inhibition: 70%
ANGPTL2; 25 µM
  target mRNA inhibition: 75.2%

## CTTGGCAATGATCTCATCC (sugars lddlddddddddlddldll, PS)
MYH7
  target mRNA inhibition: 59% and 39%

## AAGTTGATAGTTTATCTCC (sugars l3 d14 l2, PS)
ANGPTL2; 5 µM
  target mRNA inhibition: 76.3%
ANGPTL2; 25 µM
  target mRNA inhibition: 83.8%

## CAGCTTGGCGATGATCT (sugars ldldddddddlddldll, PS)
MYH7
  target mRNA inhibition: 39% and 27%

## TATTAGCATCACTACTTT (sugars l4 d11 l3, PS)
ANGPTL2; 5 µM
  target mRNA inhibition: 48%
ANGPTL2; 25 µM
  target mRNA inhibition: 52.1%

## TAAGAAGTACTTTAATAGC (sugars l4 d11 l4, PS)
HTRA1
  target mRNA inhibition: 80%

## AGATGAATATAGTTCTC (sugars l4 d10 l3, PS)
ANGPTL2; 5 µM
  target mRNA inhibition: 55.3%
ANGPTL2; 25 µM
  target mRNA inhibition: 65.9%

## CTCCGGTAATGGCCCC (sugars l1 d12 l3, PS)
ANGPTL2; 5 µM
  target mRNA inhibition: 28.6%
ANGPTL2; 25 µM
  target mRNA inhibition: 25.4%

## CAGCTTGGCGATGATCT (sugars ldllldddddlddddll, PS)
MYH7
  target mRNA inhibition: 49% and 30%

## CAGGCGTCTCTGGATGA (sugars l1 d14 l2, PS)
ANGPTL2; 5 µM
  target mRNA inhibition: 17.4%
ANGPTL2; 25 µM
  target mRNA inhibition: 10.6%

## CAGCTTGGCGATGATCT (sugars lddlddddddldlldll, PS)
MYH7
  target mRNA inhibition: 21% and 13%

## CTTGGCAATGATCTCATCC (sugars lldldldddddddldldll, PS)
MYH7
  target mRNA inhibition: 16% and -4%

## CTTGGCAATGATCTCATCC (sugars llldddddddlddldldll, PS)
MYH7
  target mRNA inhibition: 60% and 35%

## ACATAATGTTTCATGCT (sugars l4 d11 l2, PS)
ANGPTL2; 5 µM
  target mRNA inhibition: 46%
ANGPTL2; 25 µM
  target mRNA inhibition: 45.8%

## TCAGCTTGGCGATGATCT (sugars ldldlddddddldlddll, PS)
MYH7
  target mRNA inhibition: -4% and -12%

## CAGCTTGGCGATGATCT (sugars ldldlddlddddddlll, PS)
MYH7
  target mRNA inhibition: 18% and 3%

## AGTTACTCTTAGCCAAA (sugars l3 d10 l4, PS)
ANGPTL2; 5 µM
  target mRNA inhibition: 82.6%
ANGPTL2; 25 µM
  target mRNA inhibition: 84.8%

## ATTTTGAGATTCCCCCAA (sugars l1 d14 l3, PS)
ANGPTL2; 5 µM
  target mRNA inhibition: 3.44%
ANGPTL2; 25 µM
  target mRNA inhibition: 20.9%

## GTTGATGATGCGGTTGTA (sugars l1 d15 l2, PS)
ANGPTL2; 5 µM
  target mRNA inhibition: 44.2%
ANGPTL2; 25 µM
  target mRNA inhibition: 53.9%

## GTGGGCAGGAGAAGGGAC (sugars l1 d15 l2, PS)
ANGPTL2; 5 µM
  target mRNA inhibition: 17.8%
ANGPTL2; 25 µM
  target mRNA inhibition: -18.2%

## CAGCTTGGCGATGATCT (sugars lddlldddldddddlll, PS)
MYH7
  target mRNA inhibition: 1% and -8%

## GTATTGTGAGGAGTTTC (sugars l4 d11 l2, PS)
ANGPTL2; 5 µM
  target mRNA inhibition: 80%
ANGPTL2; 25 µM
  target mRNA inhibition: 84.3%
